For data set [1], the target named is T1, human 5-HT1A receptor (Homo sapiens (Human), UniProt P08908). In words: Test 1: agonistic activity for human 5-HT1A receptor (aequorin luminescence, CHO-K1). The class given is cell-based. The note with it: for EC50: CHO-K1 cell transiently expressing aequorin, Ga16 and receptor. On the procedure: (§1) Test 1: Evaluation of Agonistic Activity for Human 5-HT1A Receptor and Human D4 Receptor
(§2) Aequorin, Ga16 proteins, and each receptor were transiently expressed in CHO-K1 cell (Chinese hamster ovary), and seeded to 384-well plate. The plate was incubated in a CO2 incubator at 37° C. for 24 hours. Each example compound dissolved in DMSO was added thereto, and the change of luminescence amount was measured with Hamamatsu FDSS/μCELL System (Hamamatsu Photonics).

Data set [2] has as its target T2, human D4 receptor (Homo sapiens (Human), UniProt P21917). The data set can be described thus: Test 1: agonistic activity for human D4 receptor (aequorin luminescence, CHO-K1). The class given is cell-based. The note with it: for EC50: CHO-K1 cell transiently expressing aequorin, Ga16 and receptor. On the procedure:
as §1, §2

The next data set has as its target hERG channel (Homo sapiens (Human), UniProt Q12809). The data set can be described thus: Test 5-2: activity for inhibiting hERG channel (whole-cell patch clamp, Qube). The class given is cell-based. The settings on record: hERG-CHO cell, auto patch clamp, read-out: hERG inhibition IC50. On the procedure: Test 5-2: Evaluation of Activity for Inhibiting hERG Channel
The activity of the present compound for inhibiting hERG channel was measured by whole-cell patch clamp method with auto patch clamp system, using CHO cell wherein hERG channel involved in human rapidly activating delayed rectifier potassium current (IKr) was forcibly expressed.
hERG-CHO cell purchased from ChanTest was incubated at 37° C. in a CO2 incubator, and the cell was exfoliated from the flask with trypsin to prepare a cell suspension, shortly before the hERG current measurement.
Extracellular fluid: 2 mmol/L CaCl2, 1 mmol/L MgCl2, 10 mmol/L HEPES, 4 mmol/L KCl, 145 mmol/L NaCl, 10 mmol/L glucose
Intracellular fluid: 10 mmol/L HEPES, 10 mmol/L EGTA, 20 mmol/L KCl, 130 mmol/L KF […]
The cell suspension, the extracellular fluid, the intracellular fluid, and the measurement plate were set in an auto patch clamp system, and the hERG current was measured by whole-cell patch clamp method. […] The test was carried out applying increscently 4 concentrations of each test compound, and the average of the peak tail currents that were obtained by the last 3 stimulations in each applied concentration was made to be the evaluated data. By using the current inhibition rate for the pre-applied current at each concentration of each test compound, IC50 value was calculated by Hill equation with the software.

The next data set concerns the target human D2 receptor (Homo sapiens (Human), UniProt P14416). In words: Test 2: binding activity to human D2 receptor ([3H] spiperone). The note with it: CHO cell membrane fraction, read-out: D2 binding affinity (Ki value). On the procedure: (§3) Test 2: Evaluation of Binding Activity to Human 5-HT1A Receptor, Human D4 Receptor, and Human D2 Receptor
(§4) CHO cell membrane fraction in which human 5-HT1A receptor, human D4 receptor, and human D2 receptor were expressed was purchased from PerkinElmer Co., Ltd. In the evaluation test of binding, the test compound dissolved in DMSO, each receptor membrane preparation diluted with buffer solution, and [3H] […] The nonspecific binding to each receptor was evaluated by a competition binding experiment in the presence of 10 μmol/L 8-OH-DPAT, 10 μmol/L dopamine, or 10 μmol/L spiperone, respectively.

The target of data set [3] is T1, human 5-HT1A receptor. In words: Test 2: binding activity to human 5-HT1A receptor ([3H] 8-OH-DPAT). The note with it: CHO cell membrane fraction, read-out: 5-HT1A binding affinity (Ki value). As to the method:
as §3, §4

Data set [4] in a line: Test 3-1: metabolic stability test of human liver microsome. The class given is in vitro ADME. The settings on record: human liver microsome 0.1 mg/mL, test compound 0.1 μmol/L, 37° C., 30 minutes. On the procedure:
Test 3-1: Metabolic Stability Test of Human Liver Microsome
(§5) The stability of the present compounds for human liver microsome metabolism was evaluated as mentioned below. The used human liver microsome was obtained from Xenontech. Human liver microsome, NADPH, and each test compound were mixed in 25 mmol/L phosphate buffer solution (pH 7.4) to adjust each concentration as shown below, and the mixture was incubated at 37° C. for 30 minutes. • human liver microsome: 0.1 mg/mL • NAPDH: 3.2 mmol/L • test compound: 0.1 μmol/L
(§6) The residual ratio of the test compound in each sample after the incubation for 30 minutes was measured with a LC-MS, and the metabolic stability of human liver microsome was calculated about each test compound with the following formula. Metabolic stability of human liver microsome(mL/min/mg protein)=−LN(residual ratio)/“reaction time”/“concentration of human liver microsome”

Data set [5] has as its target T2, human D4 receptor. The data set can be described thus: Test 2: binding activity to human D4 receptor ([3H] dopamine). The note with it: CHO cell membrane fraction, read-out: D4 binding affinity (Ki value). As to the method: as §3, §4
The nature of data set [6]: Test 3-2: metabolic stability test of human liver microsome. The class given is in vitro ADME. The settings on record: human liver microsome 0.5 or 1.0 mg/mL, test compound 0.1 μmol/L, 37° C., 30 minutes. As to the method:
Test 3-2: Metabolic Stability Test of Human Liver Microsome
as §5, with “In order to evaluate the metabolic stability of human liver microsomes more precisely, the stability” for “The stability”, “evaluated with a suitable concentration of human liver microsome,” for “evaluated”, “microsome: 0.5 or 1.0” for “microsome: 0.1”
as §6

The next data set relates to Wistar male rat. The data set can be described thus: Test 9: microdialysis test (intracerebral monoamine release). The class given is in vivo. The settings on record: in the combination administration with sertraline or in single administration. On the procedure: Test 9: Microdialysis Test
The effect of the present compound for the release amount of intracerebral monoamine was evaluated in a manner mentioned below.
8-Week-old Wistar male rat was fixed on a brain stereotaxic apparatus under anesthesia. The scalp was incised, the subcutaneous tissue was removed, the position of the bregma was measured, and the installation position of a guide cannula was calculated (the position of the orbitofrontal cortex which defined according to the brain stereotaxic coordinates of Paxinos & Watson (2.0 mm right, 4.2 mm anterior from bregma)). The skull was drilled with a dental drill at the installation position of the guide cannula, and an anchor screw was set about 1 cm posterior to the hole. The guide cannula was set and fixed with a dental cement, and then the scalp was sutured. The animal was released from the brain stereotaxic apparatus, and was moved back to the breeding cage. In the event of the test, the rat was put in an acrylic observable cage, and a dialysis probe was inserted along the guide cannula to connect to a free-moving tube. With an infusion pump, Ringer solution was perfused at 2 μL/min, and the dialysis solution was recovered at 20-minute intervals. […] The recovered dialysis solutions were analyzed with a HPLC-ECD system to determine the contents of norepinephrine (NE), dopamine (DA), and serotonin (5-HT).

The mark [7] stands for this setting: 100% = 10 μmol/L endogenous ligand.
Where [8] appears, read: CHO-K1, 100% = 10 μmol/L endogenous ligand.

Structures are written as SMILES.

T2 sequence (P21917 whole entry): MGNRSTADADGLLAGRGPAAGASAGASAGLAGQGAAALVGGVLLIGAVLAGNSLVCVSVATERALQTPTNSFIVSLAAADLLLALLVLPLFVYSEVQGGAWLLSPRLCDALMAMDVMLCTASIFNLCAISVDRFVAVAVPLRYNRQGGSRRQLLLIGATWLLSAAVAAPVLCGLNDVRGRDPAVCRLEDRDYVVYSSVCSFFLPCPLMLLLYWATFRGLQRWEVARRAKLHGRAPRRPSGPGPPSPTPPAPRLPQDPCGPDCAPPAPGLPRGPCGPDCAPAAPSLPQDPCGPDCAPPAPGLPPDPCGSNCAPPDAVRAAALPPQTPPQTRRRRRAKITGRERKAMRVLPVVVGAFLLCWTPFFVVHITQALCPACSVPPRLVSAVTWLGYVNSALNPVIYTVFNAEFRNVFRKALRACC
T1 sequence (P08908 whole entry): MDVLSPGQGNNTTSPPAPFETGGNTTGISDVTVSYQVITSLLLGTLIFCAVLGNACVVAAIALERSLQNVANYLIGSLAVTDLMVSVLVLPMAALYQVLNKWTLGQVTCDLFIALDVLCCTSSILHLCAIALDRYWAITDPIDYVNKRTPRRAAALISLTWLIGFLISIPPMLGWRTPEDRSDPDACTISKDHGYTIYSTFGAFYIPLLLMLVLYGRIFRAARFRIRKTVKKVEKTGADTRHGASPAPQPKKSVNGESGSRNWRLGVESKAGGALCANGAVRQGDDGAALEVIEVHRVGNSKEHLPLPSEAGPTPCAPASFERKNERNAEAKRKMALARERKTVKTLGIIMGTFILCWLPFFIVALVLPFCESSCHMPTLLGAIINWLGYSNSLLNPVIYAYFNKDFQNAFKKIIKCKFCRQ
Chain of human D2 receptor (P14416 whole entry): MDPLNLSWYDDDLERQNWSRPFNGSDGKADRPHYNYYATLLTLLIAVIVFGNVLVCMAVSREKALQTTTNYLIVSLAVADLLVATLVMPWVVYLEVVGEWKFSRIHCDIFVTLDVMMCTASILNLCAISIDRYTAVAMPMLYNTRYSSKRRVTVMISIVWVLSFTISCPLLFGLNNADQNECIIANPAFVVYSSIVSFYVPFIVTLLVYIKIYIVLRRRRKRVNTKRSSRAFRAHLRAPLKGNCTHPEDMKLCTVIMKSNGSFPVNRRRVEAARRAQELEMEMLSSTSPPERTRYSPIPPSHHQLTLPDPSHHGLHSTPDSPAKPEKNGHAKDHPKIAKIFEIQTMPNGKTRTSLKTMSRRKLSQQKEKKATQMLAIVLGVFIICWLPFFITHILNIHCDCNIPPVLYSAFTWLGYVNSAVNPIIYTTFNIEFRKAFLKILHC
Chain of hERG channel (Q12809 whole entry): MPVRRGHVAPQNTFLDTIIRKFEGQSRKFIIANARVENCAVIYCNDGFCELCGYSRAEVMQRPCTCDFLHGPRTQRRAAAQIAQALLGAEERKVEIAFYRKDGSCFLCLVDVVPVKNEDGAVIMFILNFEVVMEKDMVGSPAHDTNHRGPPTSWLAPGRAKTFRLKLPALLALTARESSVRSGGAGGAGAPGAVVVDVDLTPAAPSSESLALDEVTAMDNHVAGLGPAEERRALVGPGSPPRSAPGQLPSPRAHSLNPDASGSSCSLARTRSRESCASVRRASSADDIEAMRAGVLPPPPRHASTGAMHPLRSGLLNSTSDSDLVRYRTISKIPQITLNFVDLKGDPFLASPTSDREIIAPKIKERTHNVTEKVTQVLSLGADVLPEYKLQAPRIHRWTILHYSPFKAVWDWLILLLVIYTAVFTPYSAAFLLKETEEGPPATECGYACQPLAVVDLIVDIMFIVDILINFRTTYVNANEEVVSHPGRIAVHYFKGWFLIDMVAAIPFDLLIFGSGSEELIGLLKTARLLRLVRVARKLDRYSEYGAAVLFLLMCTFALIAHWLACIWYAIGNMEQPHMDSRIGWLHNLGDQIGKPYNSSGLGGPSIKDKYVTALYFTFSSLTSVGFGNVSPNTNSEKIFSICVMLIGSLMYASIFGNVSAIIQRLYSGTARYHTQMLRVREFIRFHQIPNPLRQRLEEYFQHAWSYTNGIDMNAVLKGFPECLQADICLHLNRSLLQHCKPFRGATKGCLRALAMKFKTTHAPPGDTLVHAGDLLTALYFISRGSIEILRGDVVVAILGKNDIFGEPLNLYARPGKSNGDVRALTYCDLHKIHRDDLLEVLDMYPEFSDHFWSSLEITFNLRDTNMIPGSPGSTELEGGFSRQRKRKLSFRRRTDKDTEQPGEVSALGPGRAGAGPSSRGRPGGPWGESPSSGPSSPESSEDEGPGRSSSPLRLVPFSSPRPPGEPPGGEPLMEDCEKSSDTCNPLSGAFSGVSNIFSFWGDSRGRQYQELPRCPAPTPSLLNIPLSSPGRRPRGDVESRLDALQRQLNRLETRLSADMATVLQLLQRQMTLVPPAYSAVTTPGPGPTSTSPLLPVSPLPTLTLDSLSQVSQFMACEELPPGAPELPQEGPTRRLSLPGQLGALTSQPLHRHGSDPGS

With `O=C(NCCN1CCC(c2cccc(C(F)(F)F)n2)CC1)C1CCOC1` (stereo not shown) [Example 25], the “5-HT1A agonistic activity Emax” value at human 5-HT1A receptor [1] (setting [7]) is 46%. The values for the EC50 at human 5-HT1A receptor [1] and at human D4 receptor [2] were 67 nM and 30 nM, respectively. The “D4 agonistic activity Emax” value at human D4 receptor [2] (setting [7]) was 49%. Also, at hERG channel, the IC50 was above 10 µM. Besides, the inhibitory constant (Ki) at human D2 receptor came out at 3.33 µM; at human 5-HT1A receptor [3], 20 nM. In [4], the “Metabolic stability of human liver microsome” value (“Metabolic stability” for short) was below 0.05 mL/min/mg protein.

Regarding `Cc1cccc(C2CCN(CCNC(=O)C3CCCCO3)CC2)n1` (stereo not shown) [Example 20], the values for the Ki on human D4 receptor [5], at human D2 receptor and on human 5-HT1A receptor [3] were 92 nM, above 10 µM and 6.8 nM, respectively. In addition, the Emax is 40% on human 5-HT1A receptor [1] (setting [8]) and 60% at human D4 receptor [2] (setting [8]). In addition, the EC50 came to 57 nM on human 5-HT1A receptor [1] and 15 nM on human D4 receptor [2]. Moreover, the IC50 on hERG channel was above 10 µM. The “Metabolic stability” value in data set [4] is on record as below 0.05 mL/min/mg protein.

`O=C(NCCN1CCC(c2cccc(C(F)(F)F)n2)CC1)C1CCOCC1` [Example 11, N-(2-{4-[6-(Trifluoromethyl)pyridin-2-yl]piperidin-1-yl}ethyl)-tetrahydro-2H-pyran-4-carboxamide]: the “Metabolic stability” value in data set [6] was found to be 0.0075 mL/min/mg protein. Also, the “effect on serotonin content” value with Wistar male rat is given as “did not decrease the serotonin content”.
